Laboratory results published in patent publication US7541368B2, “Pyrazoles as inhibitors of tumor necrosis factor” (Aventis Pharmaceuticals Inc., priority 2003, dated 2009).

Tested on: TNF-alpha release in THP-1 cells
Assay: LPS-induced TNF-alpha release in THP-1 cells
Type: cell-based
Settings: Homo sapiens, THP-1, LPS-stimulated THP-1 cells; read-out: 50% inhibition in the LPS-induced TNF-alpha release in THP-1 cells assay at concentrations within the range
Protocol: The effects of compounds on TNF-alpha production by lipopolysaccharide (LPS)-stimulated […] monocytes were examined as follows.
Undifferentiated THP-1 cells were maintained in RPMI 1640 with Glutamax I containing β-mercaptoethananol (50 μM) and foetal calf serum (FCS-10%) at densities of about 1×10^6 cells per ml. For incubations without and with test reagents, cells were seeded at the indicated densities under serum-deprived (1% FCS) conditions. Compounds were dissolved in dimethylsulfoxide (DMSO-100%) and incubated with the cells to give a fmal DMSO concentration of 0.3%. Control and untreated cell samples were incubated with DMSO (0.3%).
THP-1 cells (1×10 ^6 cells/ml, total volume 150 μl) in culture medium were incubated for 1 hour (5% CO2, 37° C.) with fresh medium containing compounds or vehicle (0.1-0.3% dimethylsulfoxide). LPS (20 μg/ml) was then added to the cells and the incubation continued for a fuirther 18 hours. Cell supernatants were removed into 96 well plates for storage at −20° C.
TNF-alpha concentrations in cell supernatants were quantified by sandwich ELISA. Briefly, ELISA plates were coated overnight with 2 μg/ml of mouse anti-human TNF-alpha antibody in bicarbonate buffer (pH 9.9). After washing the wells with wash buffer (0.05% (v/v) Tween in PBS)and blocking unoccupied sites (1% BSA in wash buffer), monocyte supernatant samples or human recombinant TNF-alpha standards were added into the corresponding wells of the ELISA plate at 1:10 dilution. Biotinylated rabbit polyclonal anti-human TNF-alpha antibody (3 μg/ml) was used as the second antibody and streptavidin-horseradish peroxidase was used as the detection antibody. The peroxidase substrate is 3,3′,5,5′-tetramethylbenzidine (TMB) in the presence of hydrogen peroxide.
TNFα concentrations in supernatants from control and LPS-stimulated monocyte incubations were calculated by interpolation from a standard (log/log) curve (0.125-16 ng/ml) fitted by Excel Fit using the Activity Base software. Compounds were tested within the concentration range of 1×10^−9M to 1×10^−6M.

IC50 [nM] | Compound
10 to 500 | Cc1ccc(-n2nc(C(C)(C)C)cc2NC(=O)Nc2ccc(CC3CCN(C(=O)Cc4ccccc4F)CC3)cc2)cc1 [Compound A236, 1-(5-tert-Butyl-2-p-tolyl-2H-pyrazol-3-yl)-3-(4-{1-[2-(2-fluoro-phenyl)-acetyl]-piperidin-4-ylmethyl}-phenyl)-urea]
10 to 500 | Cc1ccc(-n2nc(C(C)(C)C)cc2NC(=O)Nc2cccc(CC3CCN(C(=O)C4=Cc5sccc5CC4)CC3)c2)cc1 [Compound A102, 1-(5-tert-Butyl-2-p-tolyl-2H-pyrazol-3-yl)-3-{3-[1-(4,5-dihydro-benzo[b]thiophene-6-carbonyl)-piperidin-4-ylmethyl]-phenyl}-urea]
10 to 500 | COc1ccc(OC)c(CC(=O)N2CCC(Cc3cccc(NC(=O)Nc4cc(C(C)(C)C)nn4-c4ccc(C)cc4)c3)CC2)c1 [Compound A1646, 1-(5-tert-Butyl-2-p-tolyl-2H-pyrazol-3-yl)-3-(3-{1-[2-(2,5-dimethoxy-phenyl)-acetyl]-piperidin-4-ylmethyl}-phenyl)-urea]
10 to 500 | CC(=O)OCc1ccc(C(=O)N2CCC(Cc3cccc(NC(=O)Nc4cc(C(C)(C)C)nn4-c4ccc(C)cc4)c3)CC2)cc1 [Compound A148, Acetic acid 4-(4-{3-[3-(5-tert-butyl-2-p-tolyl-2H-pyrazol-3-yl)-ureido]-benzyl}-piperidine-1-carbonyl)-benzyl ester]
10 to 500 | Cc1ccc(-n2nc(C(C)(C)C)cc2NC(=O)Nc2ccc(CC3CCN(C(=O)c4ccc(S(C)(=O)=O)cc4Cl)CC3)cc2)cc1 [Compound A233, 1-(5-tert-Butyl-2-p-tolyl-2H-pyrazol-3-yl)-3-{4-[1-(2-chloro-4-methanesulfonyl-benzoyl)-piperidin-4-ylmethyl]-phenyl}-urea]
10 to 500 | Cc1ccc(-n2nc(C(C)(C)C)cc2NC(=O)Nc2ccc(CC3CCN(C(=O)C4CCCO4)CC3)cc2)cc1 (stereo not drawn) [Compound A258, 1-(5-tert-Butyl-2-p-tolyl-2H-pyrazol-3-yl)-3-{4-[1-(tetrahydro-furan-2-carbonyl)-piperidin-4-ylmethyl]-phenyl}-urea]
10 to 500 | Cc1ccc(-n2nc(C(C)(C)C)cc2NC(=O)Nc2ccc(CC3CCN(C(=O)c4ccoc4C)CC3)cc2)cc1 [Compound A244, 1-(5-tert-Butyl-2-p-tolyl-2H-pyrazol-3-yl)-3-{4-[1-(2-methyl-furan-3-carbonyl)-piperidin-4-ylmethyl]-phenyl}-urea]
10 to 500 | Cc1ccc(-n2nc(C(C)(C)C)cc2NC(=O)Nc2cccc(CC3CCN(C(=O)Cc4ccccc4C)CC3)c2)cc1 [Compound A182, 1-(5-tert-Butyl-2-p-tolyl-2H-pyrazol-3-yl)-3-{3-[1-(2-o-tolyl-acetyl)-piperidin-4-ylmethyl]-phenyl}-urea]
10 to 500 | COc1ccc(OCC(=O)N2CCC(Cc3cccc(NC(=O)Nc4cc(C(C)(C)C)nn4-c4ccc(C)cc4)c3)CC2)cc1 [Compound A121, 1-(5-tert-Butyl-2-p-tolyl-2H-pyrazol-3-yl)-3-(3-{1-[2-(4-methoxy-phenoxy)-acetyl]-piperidin-4-ylmethyl}-phenyl)-urea]
10 to 500 | Cc1ccc(-n2nc(C(C)(C)C)cc2NC(=O)Nc2ccc(CC3CCN(C(=O)c4cccnc4N)CC3)cc2)cc1 [Compound A231, 1-{4-[1-(2-Amino-pyridine-3-carbonyl)-piperidin-4-ylmethyl]-phenyl}-3-(5-tert-butyl-2-p-tolyl-2H-pyrazol-3-yl)-urea]
10 to 500 | Cc1ccc(-n2nc(C(C)(C)C)cc2NC(=O)Nc2ccc(CC3CCN(C(=O)CC4CCCC4)CC3)cc2)cc1 [Compound A349, 1-(5-tert-Butyl-2-p-tolyl-2H-pyrazol-3-yl)-3-{4-[1-(2-cyclopentyl-acetyl)-piperidin-4-ylmethyl]-phenyl}-urea]
10 to 500 | Cc1ccc(-n2nc(C(C)(C)C)cc2NC(=O)Nc2ccc(CC3CCN(C(=O)c4cc(O)nc5ccccc45)CC3)cc2)cc1 [Compound A240, 1-(5-tert-Butyl-2-p-tolyl-2H-pyrazol-3-yl)-3-{4-[1-(2-hydroxy-quinoline-4-carbonyl)-piperidin-4-ylmethyl]-phenyl}-urea]
